Results from patent US11370769B2, “TRPC5 inhibitors and methods of using same” (BOARD OF REGENTS OF THE UNIVERSITY OF NEBRASKA, priority 2017, dated 2022).
Values belong to the compound of their own block, whether it stands above or below them.

Legend:
TRPC5 = molecular target: T1, TRPC5 (Homo sapiens, UniProt Q9UL62); assay: Syncropath % inhibition TRPC5; type: cell-based; conditions: read-out: Syncropath % inhibition TRPC5 @3 μM; heading: Syncropath % inhibition TRPC5 @3
T1 construct: expressed in transfected cells; host or cells: HEK293
T1 sequence (Q9UL62 1-973): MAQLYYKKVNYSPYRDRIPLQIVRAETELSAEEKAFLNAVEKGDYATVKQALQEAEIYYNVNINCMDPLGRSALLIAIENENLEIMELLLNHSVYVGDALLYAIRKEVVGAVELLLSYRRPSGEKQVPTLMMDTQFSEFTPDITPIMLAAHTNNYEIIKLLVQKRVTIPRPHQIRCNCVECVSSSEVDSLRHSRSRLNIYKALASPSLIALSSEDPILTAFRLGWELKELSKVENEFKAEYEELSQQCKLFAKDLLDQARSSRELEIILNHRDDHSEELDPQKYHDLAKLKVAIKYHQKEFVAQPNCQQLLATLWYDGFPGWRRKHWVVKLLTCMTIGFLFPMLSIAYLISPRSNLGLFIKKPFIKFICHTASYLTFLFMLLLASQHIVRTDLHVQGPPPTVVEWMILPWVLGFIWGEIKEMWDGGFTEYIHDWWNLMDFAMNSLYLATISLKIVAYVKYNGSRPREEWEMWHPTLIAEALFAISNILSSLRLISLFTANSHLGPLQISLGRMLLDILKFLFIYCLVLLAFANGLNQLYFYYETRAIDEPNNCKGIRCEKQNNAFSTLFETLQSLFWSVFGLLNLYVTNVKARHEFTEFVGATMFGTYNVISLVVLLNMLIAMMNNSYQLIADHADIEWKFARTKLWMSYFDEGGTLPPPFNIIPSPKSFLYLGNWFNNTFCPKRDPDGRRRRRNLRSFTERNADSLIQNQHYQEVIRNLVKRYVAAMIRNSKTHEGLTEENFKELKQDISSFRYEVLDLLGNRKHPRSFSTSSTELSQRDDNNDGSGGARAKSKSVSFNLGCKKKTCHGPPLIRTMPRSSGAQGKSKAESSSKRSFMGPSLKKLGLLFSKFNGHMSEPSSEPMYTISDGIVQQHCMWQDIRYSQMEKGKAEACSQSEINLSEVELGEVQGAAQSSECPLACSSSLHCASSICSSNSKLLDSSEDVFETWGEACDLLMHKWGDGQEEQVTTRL

podocytes = assay: ROS assay in wild-type podocytes treated with AngII; type: cell-based, mouse; conditions: WT podocytes, AngII 10 μM, 30 μM compound, 3 hours
Protocol: (§1) Podocyte culture and viral transduction: Immortalized mouse podocytes were cultured as previously described (10, 11). Podocyte viral transduction was performed using lentivirus as previously described (10, 11). Briefly, lentivirus production was carried out in HEK293T cells at 60% confluence, and viral particles were collected two days after transfection and purified by centrifugation at 1,000 rcf for 5 min. Purified lentivirus was frozen at −80° C. until further use. Podocytes were transduced with lentivirus after 7 days of differentiation, and assays were performed 5 days after viral transduction.
ROS and cell viability assays: For ROS experiment in FIG. 4A, mature podocytes were cultured as previously described. Cells were incubated with CellRox Deep Red reagent (ThermoFisher) for 30 min at 37° C. Then cells were treated with DMSO, 10 μM angiotensin II, 10 μM angiotensin II with 30 μM AC1903, or 10 μM angiotensin II with 30 μM N-acetyl-L-cysteine (NAC) for 3 hours at 37° C. Cells were washed with PBS twice and fluorescence images were observed using Olympus IX71 microscopy. Fluorescence intensities were then analyzed using ImageJ software.

caAT1R podocytes [1] = assay: ROS assay in caAT1R expressing podocytes; type: cell-based, mouse; conditions: 30 μM ML204, 30 μM AC1903 or 50 μM NSC23677 for 36 hours
Protocol: as §1
(§2) For experiments in FIG. 4B/C, pCDNA3.1 AT1AR-Δ324 (rat AT1R NM_030985.4) containing HA tag (Plasmid #45635, Addgene) underwent site directed mutagenesis (Agilent) to generate the N111S substitution. For FIG. 4B, differentiated podocytes were transduced with the AT1A-N111S/Δ324 construct in six-well plates. Six days after viral transduction, cells were treated with either vehicle, 30 μM ML204, 30 μM AC1903 or 50 μM NSC23677 for 36 hours. Intracellular production of ROS was measured using a cell-permeable fluorescent dye, 5-(and-6)-chloromethyl-2′,7′-dichlorodihydrofluorescein diacetate, acetyl ester (CM-H2DCFDA, Molecular Probes). Cells were incubated with 5 μM CM-H2DCFDA at 37° C. for 45 min in Hanks' balanced salt solution (HBSS). Cells were then collected, resuspended in HBSS, stained with propidium iodide and the fluorescence intensity was assessed by flow cytometry using MACSQuant Analyzer (Miltenyi Biotec, Bergisch Gladbach, Germany). Living cells, which were PI negative, were selected by FACS gating and the fluorescence of CM-H2DCFDA was recorded on the FL-1 channel (525 nm). For FIG. 4C, differentiated podocytes were transduced with the AT1A-N111S/Δ324 construct in 96 well plates. Six days after transduction, the cells were treated with either vehicle, 30 μM ML204, 30 μM AC1903 or 50 μM NSC23677 for 36 hours. […]

caAT1R podocytes [2] = assay: Cell viability assay in podocytes expressing caAT1R; type: cell-based, mouse; conditions: 30 μM ML204, 30 μM AC1903 or 50 μM NSC23677 for 36 hours
Protocol: as §1, §2

inhibition at 3 µM (TRPC5): 88.7%
Structure (SMILES): Fc1ccc(Cc2c(NCc3ccco3)nc3ccccn23)cc1 [Compound 5, 3-(4-fluorobenzyl)-N-(furan-2-ylmethyl)imidazo[1,2-a]pyridin-2-amine]

inhibition at 3 µM (TRPC5): 33.4%
Structure (SMILES): c1ccc(Cc2c(N3CCCC3)nc3ccccn23)cc1 [Compound 7, 3-benzyl-2-(pyrrolidin-1-yl)imidazo[1,2-a]pyridine]

Structure (SMILES): CC(=O)N[C@@H](CS)C(=O)O [NAC, N-acetyl-L-cysteine, reference compound]
AngII-induced ROS (podocytes): rescued podocytes from AngII-induced ROS

Structure (SMILES): CCN(CC)CCSc1c2ccc(Cl)cc2nc2ccc(OC)cc12.Cl [NSC23677]
caAT1R-induced ROS generation (caAT1R podocytes [1]): blocked caAT1R-induced ROS generation
podocyte cell death on caAT1R expression (caAT1R podocytes [2]): protected from cell death
